# Test results as given in patent US20240116951A1, “HETEROCYCLIC COMPOUNDS AND USES THEREOF” (Kumquat Biosciences Inc., priority 2022, published 2024).
# What was measured:
# Assay type in all cases: binding
# KRAS G12S = biological target: T1, KRAS G12S (Homo sapiens, UniProt P01116, G12S); test: HTRF assay of K-Ras G12S interaction with SOS1 (PPI-HTRF); details: 5 nM KRAS G12S, read-out: PPI-HTRF-5 nM KRAS G12S
# T1 construct: made in house; host or cells: E. coli, e.g. BL21 (DE3)
# Method in brief: (§1)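 Equilibrium binding between GST-K-Ras and His-tagged human SOS1 is measured by FRET from a europium anti-GST donor to an XL665 anti-His acceptor. Compounds are run in duplicate at 10, 2.5, 0.63, 0.16, 0.04 and 0.01 μM, and IC50 is calculated from the 665/620 nm ratio.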
# KRAS G12D = biological target: T2, KRAS G12D (Homo sapiens, UniProt P01116, G12D); test: HTRF assay of K-Ras G12D interaction with SOS1 (PPI-HTRF); details: HTRF, 5 nM KRAS G12D; read-out: PPI-HTRF-5 nM KRAS G12D
# T2 construct: made in house; host or cells: E. coli, e.g. BL21 (DE3)
# T2 sequence (P01116 1-188 isoform P01116-2 G12D): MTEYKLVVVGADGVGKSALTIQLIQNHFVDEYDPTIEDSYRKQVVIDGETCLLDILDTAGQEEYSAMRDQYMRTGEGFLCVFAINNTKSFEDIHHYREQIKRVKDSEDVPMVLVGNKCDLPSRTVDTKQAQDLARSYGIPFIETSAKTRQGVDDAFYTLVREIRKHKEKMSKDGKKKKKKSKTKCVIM
# Method in brief: as §1
# KRAS WT = biological target: T3, KRAS WT (Homo sapiens, UniProt P01116); test: HTRF assay of wildtype K-Ras interaction with SOS1 (PPI-HTRF); details: HTRF, 5 nM KRAS WT; read-out: PPI-HTRF-5 nM KRAS WT
# T3 construct: made in house; host or cells: E. coli, e.g. BL21 (DE3)
# T3 sequence (P01116 1-188 isoform P01116-2): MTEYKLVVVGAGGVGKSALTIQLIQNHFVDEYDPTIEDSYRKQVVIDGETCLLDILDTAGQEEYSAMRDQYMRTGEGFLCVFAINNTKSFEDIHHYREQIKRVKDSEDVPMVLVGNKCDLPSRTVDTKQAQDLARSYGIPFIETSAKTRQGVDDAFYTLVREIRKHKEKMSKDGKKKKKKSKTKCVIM
# Method in brief: as §1
# T1 sequence (P01116 1-188 isoform P01116-2 G12S): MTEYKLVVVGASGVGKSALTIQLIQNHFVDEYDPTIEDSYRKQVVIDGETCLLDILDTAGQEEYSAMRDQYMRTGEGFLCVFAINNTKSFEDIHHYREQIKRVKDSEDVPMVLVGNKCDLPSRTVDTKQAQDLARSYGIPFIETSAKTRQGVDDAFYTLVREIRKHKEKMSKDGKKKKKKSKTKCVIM
SMILES,IC50 (KRAS G12S),IC50 (KRAS G12D),IC50 (KRAS WT)
"C#Cc1c(F)ccc2cc(O)cc(-c3ncc4c(N5CCC6(CCN6)C5)nc(OC[C@@]56CCCN5C[C@H](F)C6)nc4c3F)c12 (stereo partly drawn) [Compound 268, 5-ethynyl-6-fluoro-4-(8-fluoro-2-(((2R,7aS)-2-fluorotetrahydro-1H-pyrrolizin-7a(5H)-yl)methoxy)-4-(1,6-diazaspiro[3.4]octan-6-yl)pyrido[4,3-d]pyrimidin-7-yl)naphthalen-2-ol]",< 5 µM,< 5 µM,< 5 µM
"N#Cc1c(N)sc2c(F)ccc(-c3c(Cl)cc4c(N5CCC6(CCN6C(=O)n6cc(C(F)(F)F)nn6)C5)nc(OC[C@@]56CCCN5C[C@H](F)C6)nc4c3F)c12 (stereo partly drawn) [Compound 318, 2-amino-4-(6-chloro-8-fluoro-2-(((2R,7aS)-2-fluorotetrahydro-1H-pyrrolizin-7a(5H)-yl)methoxy)-4-(1-(4-(trifluoromethyl)-1H-1,2,3-triazole-1-carbonyl)-1,6-diazaspiro[3.4]octan-6-yl)quinazolin-7-yl)-7-fluorobenzo[b]thiophene-3-carbonitrile]",< 5 µM,< 5 µM,< 5 µM
"N#Cc1c(N)sc2c(F)ccc(-c3c(Cl)cc4c(N5CC[C@@]6(CCN6C(=O)n6cnc(F)n6)C5)nc(OC[C@@]56CCCN5C[C@H](F)C6)nc4c3F)c12 (atropisomer, axis not shown; (aS)) [Compound 281, (R)-2-amino-4-(6-chloro-8-fluoro-4-((R)-1-(3-fluoro-1H-1,2,4-triazole-1-carbonyl)-1,6-diazaspiro[3.4]octan-6-yl)-2-(((2R,7aS)-2-fluorotetrahydro-H-pyrrolizin-7a(5H)-yl)methoxy)quinazolin-7-yl)-7-fluorobenzo[b]thiophene-3-carbonitrile]",< 5 µM,< 5 µM,< 5 µM
"COCc1ncn(C(=O)N2CCC23CCN(c2nc(OC[C@@]45CCCN4C[C@H](F)C5)nc4c(F)c(-c5ccc(F)c6sc(N)c(C#N)c56)c(Cl)cc24)C3)n1 (stereo partly drawn) [Compound 313, 2-amino-4-(6-chloro-8-fluoro-2-(((2R,7aS)-2-fluorotetrahydro-1H-pyrrolizin-7a(5H)-yl)methoxy)-4-(1-(3-(methoxymethyl)-1H-1,2,4-triazole-1-carbonyl)-1,6-diazaspiro[3.4]octan-6-yl)quinazolin-7-yl)-7-fluorobenzo[b]thiophene-3-carbonitrile]",< 5 µM,< 5 µM,< 5 µM
"N#Cc1c(N)sc2c(F)ccc(-c3c(Cl)cc4c(N5CCC6(CC5)CCN6C(=O)[C@@H]5N[C@H]5C5CC5)nc(OC[C@@]56CCCN5C[C@H](F)C6)nc4c3F)c12 [Compound 262, 2-amino-4-(6-chloro-4-(1-((2R,3S)-3-cyclopropylaziridine-2-carbonyl)-1,7-diazaspiro[3.5]nonan-7-yl)-8-fluoro-2-(((2R,7aS)-2-fluorotetrahydro-1H-pyrrolizin-7a(5H)-yl)methoxy)quinazolin-7-yl)-7-fluorobenzo[b]thiophene-3-carbonitrile]",< 5 µM,< 5 µM,< 5 µM
"N#Cc1c(N)sc2c(F)ccc(-c3c(Cl)cc4c(N5CCCC6(CCN6)C5)nc(OC[C@@]56CCCN5C[C@H](F)C6)nc4c3F)c12 (stereo partly drawn) [Compound 236, 2-amino-4-(6-chloro-8-fluoro-2-(((2R,7aS)-2-fluorotetrahydro-1H-pyrrolizin-7a(5H)-yl)methoxy)-4-(1,6-diazaspiro[3.5]nonan-6-yl)quinazolin-7-yl)-7-fluorobenzo[b]thiophene-3-carbonitrile]",< 5 µM,< 5 µM,< 5 µM
"C#Cc1c(F)ccc2cc(O)cc(-c3ncc4c(N5CCC6(CCN6C(=O)n6cncn6)C5)nc(OC[C@@]56CCCN5C[C@H](F)C6)nc4c3F)c12 (stereo partly drawn) [Compound 270, (6-(7-(8-ethynyl-7-fluoro-3-hydroxynaphthalen-1-yl)-8-fluoro-2-(((2R,7aS)-2-fluorotetrahydro-1H-pyrrolizin-7a(5H)-yl)methoxy)pyrido[4,3-d]pyrimidin-4-yl)-1,6-diazaspiro[3.4]octan-1-yl)(1H-1,2,4-triazol-1-yl)methanone]",< 5 µM,< 5 µM,< 5 µM

# More lines, now with the values ahead:
IC50 (KRAS G12S),IC50 (KRAS G12D),IC50 (KRAS WT),SMILES
< 5 µM,< 5 µM,< 5 µM,"N#Cc1c(N)sc2c(F)ccc(-c3c(Cl)cc4c(N5CC6(CCN6C(=O)n6cncn6)C5)nc(OC[C@@]56CCCN5C[C@H](F)C6)nc4c3F)c12 [Compound 238, 4-(4-(1-(1H-1,2,4-triazole-1-carbonyl)-1,6-diazaspiro[3.3]heptan-6-yl)-6-chloro-8-fluoro-2-(((2R,7aS)-2-fluorotetrahydro-1H-pyrrolizin-7a(5H)-yl)methoxy)quinazolin-7-yl)-2-amino-7-fluorobenzo[b]thiophene-3-carbonitrile]"
< 5 µM,< 5 µM,< 5 µM,"N#Cc1c(N)sc2c(F)ccc(-c3c(Cl)cc4c(N5CCC6(C5)NCC6(F)F)nc(OC[C@@]56CCCN5C[C@H](F)C6)nc4c3F)c12 (stereo partly drawn) [Compound 232, 2-amino-4-(6-chloro-4-(3,3-difluoro-1,6-diazaspiro[3.4]octan-6-yl)-8-fluoro-2-(((2R,7aS)-2-fluorotetrahydro-1H-pyrrolizin-7a(5H)-yl)methoxy)quinazolin-7-yl)-7-fluorobenzo[b]thiophene-3-carbonitrile]"
< 5 µM,< 5 µM,< 5 µM,"N#Cc1c(N)sc2c(F)ccc(-c3c(Cl)cc4c(N5CC[C@]6(CCN6C(=O)n6cncn6)C5)nc(OC[C@@]56CCCN5C[C@H](F)C6)nc4c3F)c12 [Compound 305, 4-(4-((S)-1-(1H-1,2,4-triazole-1-carbonyl)-1,6-diazaspiro[3.4]octan-6-yl)-6-chloro-8-fluoro-2-(((2R,7aS)-2-fluorotetrahydro-1H-pyrrolizin-7a(5H)-yl)methoxy)quinazolin-7-yl)-2-amino-7-fluorobenzo[b]thiophene-3-carbonitrile]"
< 5 µM,< 5 µM,< 5 µM,"C[C@H]1N(c2nc(OC[C@@]34CCCN3C[C@H](F)C4)nc3c(F)c(-c4ccc(F)c5sc(N)c(C#N)c45)c(Cl)cc23)CC[C@@]12CCN2C(=O)n1cnc(C(F)F)n1 [Compound 325, 2-amino-4-(6-chloro-4-((4R,5R)-1-(3-(difluoromethyl)-1H-1,2,4-triazole-1-carbonyl)-5-methyl-1,6-diazaspiro[3.4]octan-6-yl)-8-fluoro-2-(((2R,7aS)-2-fluorotetrahydro-1H-pyrrolizin-7a(5H)-yl)methoxy)quinazolin-7-yl)-7-fluorobenzo[b]thiophene-3-carbonitrile]"
< 5 µM,< 5 µM,< 5 µM,"Cc1ncn(C(=O)N2CC[C@]23CCN(c2nc(OC[C@@]45CCCN4C[C@H](F)C5)nc4c(F)c(-c5ccc(F)c6sc(N)c(C#N)c56)c(Cl)cc24)C3)n1 [Compound 222, 2-amino-4-(6-chloro-8-fluoro-2-(((2R,7aS)-2-fluorotetrahydro-1H-pyrrolizin-7a(5H)-yl)methoxy)-4-((S)-1-(3-methyl-1H-1,2,4-triazole-1-carbonyl)-1,6-diazaspiro[3.4]octan-6-yl)quinazolin-7-yl)-7-fluorobenzo[b]thiophene-3-carbonitrile]"
< 5 µM,< 5 µM,< 5 µM,"C#Cc1c(F)ccc2cc(O)cc(-c3ccc4c(N5CCC6(CCN6C(=O)n6cncn6)C5)nc(OC[C@@]56CCCN5C[C@H](F)C6)nc4c3F)c12 (stereo partly drawn) [Compound 277, (6-(7-(8-ethynyl-7-fluoro-3-hydroxynaphthalen-1-yl)-8-fluoro-2-(((2R,7aS)-2-fluorotetrahydro-1H-pyrrolizin-7a(5H)-yl)methoxy)quinazolin-4-yl)-1,6-diazaspiro[3.4]octan-1-yl)(1H-1,2,4-triazol-1-yl)methanone]"
< 5 µM,< 5 µM,< 5 µM,"N#Cc1c(N)sc2c(F)ccc(-c3c(Cl)cc4c(N5CC6(CCN6C(=O)C6CC6(F)F)C5)nc(OC[C@@]56CCCN5C[C@H](F)C6)nc4c3F)c12 (stereo partly drawn) [Compound 340, 2-amino-4-(6-chloro-4-(1-(2,2-difluorocyclopropane-1-carbonyl)-1,6-diazaspiro[3.3]heptan-6-yl)-8-fluoro-2-(((2R,7aS)-2-fluorotetrahydro-1H-pyrrolizin-7a(5H)-yl)methoxy)quinazolin-7-yl)-7-fluorobenzo[b]thiophene-3-carbonitrile]"
< 5 µM,< 5 µM,< 5 µM,"N#Cc1c(N)sc2c(F)ccc(-c3c(Cl)cc4c(N5CCC6(CCN6C(=O)n6cccc6C#N)C5)nc(OC[C@@]56CCCN5C[C@H](F)C6)nc4c3F)c12 (stereo partly drawn) [Compound 289, 1-(6-(7-(2-amino-3-cyano-7-fluorobenzo[b]thiophen-4-yl)-6-chloro-8-fluoro-2-(((2R,7aS)-2-fluorotetrahydro-1H-pyrrolizin-7a(5H)-yl)methoxy)quinazolin-4-yl)-1,6-diazaspiro[3.4]octane-1-carbonyl)-1H-pyrrole-2-carbonitrile]"
< 5 µM,< 5 µM,< 5 µM,"C[C@H](Oc1nc(N2CC[C@@]3(CCN3C(=O)C3CC3(F)F)C2)c2cc(Cl)c(-c3ccc(F)c4sc(N)c(C#N)c34)c(F)c2n1)[C@@H]1CCCN1C (stereo partly drawn) [Compound 346, (4S)-2-amino-4-(6-chloro-4-((4R)-1-(2,2-difluorocyclopropane-1-carbonyl)-1,6-diazaspiro[3.4]octan-6-yl)-8-fluoro-2-((S)-1-((S)-1-methylpyrrolidin-2-yl)ethoxy)quinazolin-7-yl)-7-fluorobenzo[b]thiophene-3-carbonitrile]"
